# “Also recorded” adds a separate entry of the source.
# Tests used:
# Ack1 [1] = biological target: T1, Ack1 (Homo sapiens, UniProt Q07912); assay: Kinase panel screen at 500 nM: Ack1; type: biochemical; design: only the kinase domain of Ack1 and a limited additional region C-terminal (amino acids 110-476); conditions: 500 nM compound, 10 μM ATP; for inhibition at 0.5 µM: duplicate, read-out: inhibition of Ack1 catalytic activity
# Target sequence in this assay (Q07912 110-476): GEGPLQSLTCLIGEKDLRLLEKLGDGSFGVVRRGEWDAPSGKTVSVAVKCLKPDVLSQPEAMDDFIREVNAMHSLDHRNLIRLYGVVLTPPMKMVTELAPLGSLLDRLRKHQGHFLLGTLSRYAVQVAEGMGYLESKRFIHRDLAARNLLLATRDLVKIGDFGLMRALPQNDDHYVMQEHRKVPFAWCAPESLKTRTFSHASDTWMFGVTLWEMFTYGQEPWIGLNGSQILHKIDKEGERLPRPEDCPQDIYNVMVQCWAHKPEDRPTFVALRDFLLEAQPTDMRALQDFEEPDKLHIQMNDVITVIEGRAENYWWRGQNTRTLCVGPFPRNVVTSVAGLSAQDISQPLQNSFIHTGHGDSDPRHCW
# Experimental: Each inhibitor was tested in duplicate at 500 nM against each kinase using radiolabeled ATP (10 μM total ATP) and a peptide or protein substrate.
# Aurora B = Aurora B (Homo sapiens, UniProt Q96GD4); assay: Kinase panel screen at 500 nM: Aurora B; type: biochemical; conditions: 500 nM compound, 10 μM ATP
# Description: (§1) Disparate replicates were eliminated from the analysis.
# [2] = biological target: non-receptor tyrosine kinase BRK (Homo sapiens, UniProt Q13882); assay: Kinase panel screen at 500 nM: BRK; type: biochemical; conditions: 500 nM compound, 10 μM ATP
# Description: as §1
# Ack1 [3] = biological target: T1, Ack1; assay: Ack1 dose-response radiometric peptide kinase assay; type: biochemical
# Experimental: 40 ng of recombinant Ack1 was incubated with saturating quantities of peptide substrate ([…] (SEQ ID NO:1) and in the presence of a compound in Ack1 kinase buffer (20 mM Tris pH 7.4, 10 mM MgCl2, 0.1 mM NaVO4, 0.5 mM dithiothreitol). [^32P]-γ-ATP was added in a total concentration of 10 μM ATP to initiate the reaction. Following 30 minute incubation at 30° C., phosphorylated peptide substrate was captured by spotting the reaction on P81 cationic filter paper and unincorporated [^32P]-γ-ATP was removed by washing in a solution of phosphoric acid. Phosphorylated peptide was then quantified by autoradiography or by Phosphorlmager analysis or by scintillation counting.
# (§2) Thus, this Example proposed derivatives of compound 1 that inhibit Ack1 in the cellular context while retaining its target specificity.
# Target sequence in this assay (Q07912 whole entry, the tested form may be a part): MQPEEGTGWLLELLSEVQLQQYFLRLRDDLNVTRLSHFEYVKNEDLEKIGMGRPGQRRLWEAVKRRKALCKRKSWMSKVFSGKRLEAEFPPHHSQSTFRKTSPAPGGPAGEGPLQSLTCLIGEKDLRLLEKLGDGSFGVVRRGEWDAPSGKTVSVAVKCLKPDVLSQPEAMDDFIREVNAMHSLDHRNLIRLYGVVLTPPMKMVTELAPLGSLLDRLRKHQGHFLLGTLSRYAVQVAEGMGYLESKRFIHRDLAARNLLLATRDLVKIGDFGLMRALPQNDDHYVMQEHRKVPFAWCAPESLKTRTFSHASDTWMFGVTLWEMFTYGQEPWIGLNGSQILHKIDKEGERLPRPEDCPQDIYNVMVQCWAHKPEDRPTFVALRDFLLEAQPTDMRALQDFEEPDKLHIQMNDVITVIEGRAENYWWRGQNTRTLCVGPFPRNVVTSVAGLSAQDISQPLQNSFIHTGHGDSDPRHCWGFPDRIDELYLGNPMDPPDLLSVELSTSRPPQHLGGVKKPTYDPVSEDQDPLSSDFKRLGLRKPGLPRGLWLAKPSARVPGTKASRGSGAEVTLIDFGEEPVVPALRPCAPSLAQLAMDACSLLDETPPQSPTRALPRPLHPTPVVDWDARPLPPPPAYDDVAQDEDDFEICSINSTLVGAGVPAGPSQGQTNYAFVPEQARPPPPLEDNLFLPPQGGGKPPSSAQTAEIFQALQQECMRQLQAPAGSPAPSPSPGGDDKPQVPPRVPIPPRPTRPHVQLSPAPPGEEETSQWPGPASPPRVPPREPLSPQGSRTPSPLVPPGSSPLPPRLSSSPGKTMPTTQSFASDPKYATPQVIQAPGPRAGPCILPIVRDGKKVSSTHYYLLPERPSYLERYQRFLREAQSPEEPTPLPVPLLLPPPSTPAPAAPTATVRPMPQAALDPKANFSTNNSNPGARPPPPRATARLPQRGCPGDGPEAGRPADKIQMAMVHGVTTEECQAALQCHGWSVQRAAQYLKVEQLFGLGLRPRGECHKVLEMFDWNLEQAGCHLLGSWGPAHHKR
# Aurora [4] = conditions: Heron et al. 2006; cited from earlier work
# Aurora [5] = conditions: Heron et al. 2006; cited from earlier work; remark: listed apart in the source
# [6] = system: panel of 300 protein kinases; assay: Kinase selectivity across panel of 300 kinases (Gini coefficient); type: biochemical, human; conditions: 500 nM
# Experimental: as §1
# The data were analyzed for compounds that inhibit Ack1. […] Inhibitor selectivity was quantitatively assessed using the Gini coefficient (Piotr P et al. (2007) J. Med. Chem., 50:5773-9; and, Lynette A et al. (2009) J. Chem. Biol. 2:131-51).
# [7] = system: Ack1 autophosphorylation (Tyr284); assay: Ack1 autophosphorylation in HEK293 cells (Western blot phospho-Ack1); type: cell-based; conditions: HEK293 cells expressing Ack1
# Description: as §2
# RET = RET (Homo sapiens, UniProt P07949); assay: Kinase panel screen at 500 nM: RET; type: biochemical; conditions: 500 nM compound, 10 μM ATP
# Description: as §1
# Tyk2 = Tyk2 (Homo sapiens, UniProt P29597); assay: Kinase panel screen at 500 nM: Tyk2; type: biochemical; conditions: 500 nM compound, 10 μM ATP
# Description: as §1
# IKK-2 = biological target: T2, IKK-2 (Homo sapiens, UniProt O14920); assay: Kinase panel screen at 500 nM: IKK-2; type: biochemical; conditions: 500 nM compound, 10 μM ATP
# T2 sequence (O14920 1-756): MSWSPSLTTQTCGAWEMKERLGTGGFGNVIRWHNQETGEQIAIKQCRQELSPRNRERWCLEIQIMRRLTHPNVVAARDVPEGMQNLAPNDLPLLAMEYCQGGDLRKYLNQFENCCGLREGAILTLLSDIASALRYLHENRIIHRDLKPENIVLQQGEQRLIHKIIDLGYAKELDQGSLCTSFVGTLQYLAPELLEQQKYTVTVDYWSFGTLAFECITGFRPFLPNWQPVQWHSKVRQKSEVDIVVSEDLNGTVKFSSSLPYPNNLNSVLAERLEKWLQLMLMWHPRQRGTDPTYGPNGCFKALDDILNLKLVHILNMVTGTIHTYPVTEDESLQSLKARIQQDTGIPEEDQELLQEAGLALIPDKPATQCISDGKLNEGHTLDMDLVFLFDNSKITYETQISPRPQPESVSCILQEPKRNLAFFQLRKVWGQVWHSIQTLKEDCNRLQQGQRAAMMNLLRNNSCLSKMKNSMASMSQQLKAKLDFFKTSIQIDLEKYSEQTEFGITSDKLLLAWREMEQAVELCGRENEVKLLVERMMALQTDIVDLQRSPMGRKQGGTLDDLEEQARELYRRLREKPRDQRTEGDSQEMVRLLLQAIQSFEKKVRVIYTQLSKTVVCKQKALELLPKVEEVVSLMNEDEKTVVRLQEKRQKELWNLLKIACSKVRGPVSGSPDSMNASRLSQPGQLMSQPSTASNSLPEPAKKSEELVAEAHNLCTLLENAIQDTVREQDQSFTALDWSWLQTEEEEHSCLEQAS
# Description: (§3) To directly test the kinase selectivity of a large number of established kinase inhibitors, high throughput kinase assays were employed against a panel of ^˜300 recombinant human protein kinases. An economical method based on conventional filter-binding assays was used at a nanoliter scale using radiolabeled ATP that directly measures kinase catalytic activity toward a polypeptide and/or protein substrate. […] The library of inhibitors comprises 160 pure compounds known to inhibit kinases representing all major protein kinase families, as well as a limited number of compounds that were not developed to target protein kinases (FIG. 1A).
# (§4) The kinase panel tested represents all major human protein kinase. For simplicity, all compounds were tested at a concentration of 0.5 μM in the presence of 10 μM ATP.
# (§5) Each kinase-inhibitor pair was tested in duplicate and results were expressed as percent remaining kinase activity compared to solvent (DMSO) control reactions. Disparate replicates were eliminated from the analysis.
# (§6) As described above, a large-scale parallel screening of a collection of 160 known kinase inhibitors was conducted against a panel of 294-300 recombinant human protein kinases. Goals included the identification of novel inhibitor scaffolds for new kinase targets and the revelation of the target specificities of this panel of research compounds. […]
# FLT3 = biological target: T3, FLT3 (Homo sapiens, UniProt P36888); assay: Kinase panel screen at 500 nM: FLT3; type: biochemical; conditions: 500 nM compound, 10 μM ATP
# T3 sequence (P36888 27-993): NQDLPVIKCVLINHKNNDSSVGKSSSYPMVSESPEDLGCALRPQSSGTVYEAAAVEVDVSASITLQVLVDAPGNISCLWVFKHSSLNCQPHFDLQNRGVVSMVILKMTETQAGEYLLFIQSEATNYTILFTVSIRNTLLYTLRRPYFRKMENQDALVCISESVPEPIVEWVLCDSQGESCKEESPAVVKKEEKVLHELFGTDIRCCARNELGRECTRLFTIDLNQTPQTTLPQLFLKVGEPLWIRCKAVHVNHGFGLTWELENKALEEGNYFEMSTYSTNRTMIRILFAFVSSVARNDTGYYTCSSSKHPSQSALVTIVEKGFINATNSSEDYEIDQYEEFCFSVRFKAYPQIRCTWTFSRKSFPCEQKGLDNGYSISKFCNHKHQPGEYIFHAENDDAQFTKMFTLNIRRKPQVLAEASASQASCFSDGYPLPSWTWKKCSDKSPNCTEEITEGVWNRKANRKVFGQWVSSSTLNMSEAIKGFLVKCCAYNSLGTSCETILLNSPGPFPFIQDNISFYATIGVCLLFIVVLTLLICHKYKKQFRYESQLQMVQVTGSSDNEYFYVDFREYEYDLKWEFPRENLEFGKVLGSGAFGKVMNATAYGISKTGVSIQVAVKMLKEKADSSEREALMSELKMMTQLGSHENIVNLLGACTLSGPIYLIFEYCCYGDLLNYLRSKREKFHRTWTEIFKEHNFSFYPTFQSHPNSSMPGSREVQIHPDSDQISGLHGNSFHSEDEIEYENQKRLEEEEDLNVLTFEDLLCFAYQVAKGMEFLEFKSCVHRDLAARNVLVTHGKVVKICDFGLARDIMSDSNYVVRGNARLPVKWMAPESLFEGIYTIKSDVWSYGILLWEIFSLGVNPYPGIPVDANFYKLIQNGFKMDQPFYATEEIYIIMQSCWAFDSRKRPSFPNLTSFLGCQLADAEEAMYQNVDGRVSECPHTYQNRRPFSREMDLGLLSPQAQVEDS
# Description: as §1
# JAK1/2 = assay: Kinase panel screen at 500 nM: JAK1/2; type: biochemical, human; conditions: 500 nM compound, 10 μM ATP
# Description: as §3, §4, §5, §6
# Tyk2, sequence (P29597 whole entry): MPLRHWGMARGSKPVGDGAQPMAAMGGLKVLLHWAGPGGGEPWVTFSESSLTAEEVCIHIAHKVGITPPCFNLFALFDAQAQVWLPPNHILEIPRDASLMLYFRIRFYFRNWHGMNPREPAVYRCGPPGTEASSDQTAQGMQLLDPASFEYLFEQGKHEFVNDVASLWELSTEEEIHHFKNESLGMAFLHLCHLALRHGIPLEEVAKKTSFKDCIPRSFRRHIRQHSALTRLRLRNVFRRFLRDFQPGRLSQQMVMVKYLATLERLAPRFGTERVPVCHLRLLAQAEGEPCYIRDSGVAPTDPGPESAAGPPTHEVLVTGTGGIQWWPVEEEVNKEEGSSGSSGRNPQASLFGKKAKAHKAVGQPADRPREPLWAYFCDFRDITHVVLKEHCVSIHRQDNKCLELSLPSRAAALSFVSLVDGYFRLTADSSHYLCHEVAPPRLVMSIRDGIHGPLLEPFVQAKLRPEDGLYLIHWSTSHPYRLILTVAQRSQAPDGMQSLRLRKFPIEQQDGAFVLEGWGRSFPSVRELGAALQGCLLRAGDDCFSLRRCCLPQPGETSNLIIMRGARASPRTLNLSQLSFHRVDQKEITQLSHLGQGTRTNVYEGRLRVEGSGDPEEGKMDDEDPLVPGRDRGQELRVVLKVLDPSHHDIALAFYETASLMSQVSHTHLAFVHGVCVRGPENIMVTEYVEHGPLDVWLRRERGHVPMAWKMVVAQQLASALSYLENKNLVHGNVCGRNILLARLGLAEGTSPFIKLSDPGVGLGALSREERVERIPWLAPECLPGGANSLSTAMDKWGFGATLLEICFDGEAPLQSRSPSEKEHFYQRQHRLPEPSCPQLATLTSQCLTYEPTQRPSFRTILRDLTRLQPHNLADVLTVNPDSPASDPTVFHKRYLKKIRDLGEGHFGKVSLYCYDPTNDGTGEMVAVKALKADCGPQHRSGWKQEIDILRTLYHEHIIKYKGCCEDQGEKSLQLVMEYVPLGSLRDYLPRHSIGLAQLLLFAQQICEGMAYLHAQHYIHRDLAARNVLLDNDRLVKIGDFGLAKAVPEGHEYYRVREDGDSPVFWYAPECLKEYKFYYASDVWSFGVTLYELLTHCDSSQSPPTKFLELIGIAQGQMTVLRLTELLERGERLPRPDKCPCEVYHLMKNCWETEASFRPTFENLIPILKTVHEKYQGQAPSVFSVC
# Aurora B, sequence (Q96GD4 whole entry): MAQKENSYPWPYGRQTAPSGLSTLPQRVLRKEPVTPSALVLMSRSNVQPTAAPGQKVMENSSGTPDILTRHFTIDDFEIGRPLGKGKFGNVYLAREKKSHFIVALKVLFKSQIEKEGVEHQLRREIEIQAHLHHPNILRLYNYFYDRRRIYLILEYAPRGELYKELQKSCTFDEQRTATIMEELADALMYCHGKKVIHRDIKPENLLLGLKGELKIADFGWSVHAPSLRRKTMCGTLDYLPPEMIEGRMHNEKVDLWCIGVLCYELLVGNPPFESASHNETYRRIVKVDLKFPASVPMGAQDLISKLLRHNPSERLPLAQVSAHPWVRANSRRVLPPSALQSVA
# non-receptor tyrosine kinase BRK, sequence (Q13882 whole entry): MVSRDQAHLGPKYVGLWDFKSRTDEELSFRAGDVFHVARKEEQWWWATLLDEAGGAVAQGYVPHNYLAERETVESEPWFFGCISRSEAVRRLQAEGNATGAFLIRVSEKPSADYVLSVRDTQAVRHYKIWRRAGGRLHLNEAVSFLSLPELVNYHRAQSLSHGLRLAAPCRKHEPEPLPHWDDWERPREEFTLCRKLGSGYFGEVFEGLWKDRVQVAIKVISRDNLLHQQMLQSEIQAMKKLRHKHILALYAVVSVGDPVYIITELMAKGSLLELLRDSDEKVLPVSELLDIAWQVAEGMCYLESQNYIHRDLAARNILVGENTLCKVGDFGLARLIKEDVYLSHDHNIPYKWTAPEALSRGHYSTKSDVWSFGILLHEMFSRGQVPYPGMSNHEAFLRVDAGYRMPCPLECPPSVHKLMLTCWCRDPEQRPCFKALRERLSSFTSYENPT
# RET, sequence (P07949 29-1114): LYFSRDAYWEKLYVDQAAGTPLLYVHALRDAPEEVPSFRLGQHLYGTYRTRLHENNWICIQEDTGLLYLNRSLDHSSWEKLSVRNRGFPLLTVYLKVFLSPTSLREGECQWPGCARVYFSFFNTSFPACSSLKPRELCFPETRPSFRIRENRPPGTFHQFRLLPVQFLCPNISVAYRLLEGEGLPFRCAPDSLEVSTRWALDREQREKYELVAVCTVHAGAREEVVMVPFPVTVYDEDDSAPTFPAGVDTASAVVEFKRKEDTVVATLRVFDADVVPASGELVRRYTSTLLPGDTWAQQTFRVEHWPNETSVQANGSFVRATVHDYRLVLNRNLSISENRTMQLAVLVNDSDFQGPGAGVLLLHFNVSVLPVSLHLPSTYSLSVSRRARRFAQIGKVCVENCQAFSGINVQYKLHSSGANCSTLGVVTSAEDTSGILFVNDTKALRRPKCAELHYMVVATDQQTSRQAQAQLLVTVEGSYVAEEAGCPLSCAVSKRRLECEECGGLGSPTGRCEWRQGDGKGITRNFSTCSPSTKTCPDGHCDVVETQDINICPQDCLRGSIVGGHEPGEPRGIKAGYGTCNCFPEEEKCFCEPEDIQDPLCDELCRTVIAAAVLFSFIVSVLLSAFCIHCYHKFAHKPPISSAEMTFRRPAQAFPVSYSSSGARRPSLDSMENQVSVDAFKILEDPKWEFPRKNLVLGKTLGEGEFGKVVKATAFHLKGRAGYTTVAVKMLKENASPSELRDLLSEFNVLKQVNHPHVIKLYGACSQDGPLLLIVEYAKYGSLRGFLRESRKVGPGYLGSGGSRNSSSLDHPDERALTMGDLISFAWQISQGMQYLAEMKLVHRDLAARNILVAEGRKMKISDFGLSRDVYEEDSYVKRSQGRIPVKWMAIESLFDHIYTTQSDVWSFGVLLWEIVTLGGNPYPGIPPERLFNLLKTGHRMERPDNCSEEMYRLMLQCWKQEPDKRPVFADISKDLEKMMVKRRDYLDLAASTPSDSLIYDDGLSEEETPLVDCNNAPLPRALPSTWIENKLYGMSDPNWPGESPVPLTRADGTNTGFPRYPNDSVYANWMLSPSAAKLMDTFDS
compound,measurement,setting,value
"CN[C@@H]1C[C@H]2O[C@@](C)([C@@H]1OC)n1c3ccccc3c3c4c(c5c6ccccc6n2c5c31)C(=O)NC4 [staurosporine, reference compound]",inhibition of Ack1 in the screen,Ack1 [1],inhibited Ack1 in addition to many other kinases
COc1cc2ncnc(Nc3ccc(NC(=O)c4ccccc4)cc3)c2cc1OC [Compound 1],inhibition at 0.5 µM,Ack1 [1],95%
same,inhibition at 0.5 µM,Aurora B,75%
same,inhibition at 0.5 µM,[2],> 50%
same,IC50,"Ack1 [3]; dose-response, 10 μM ATP, read-out: IC50 against Ack1 in vitro",5 nM
same,in vitro activity against Aurora,Aurora [4],good in vitro activity
same,cellular efficacy against Aurora,Aurora [5],poor cellular efficacy
same,kinase selectivity for Ack1 over other kinases,[6],unusually selective
same,inhibition of Ack1 autophosphorylation in cells,[7],did not reduce Ack1 autophosphorylation
NC(=O)Nc1sc(-c2ccc(F)cc2)cc1C(N)=O [Compound 3],inhibition at 0.5 µM,Ack1 [1],94%
same,inhibition of catalytic activity of RET,RET,partial inhibition
same,inhibition of catalytic activity of Tyk2,Tyk2,partial inhibition
same,inhibition at 0.5 µM,IKK-2,91%
same,inhibition of catalytic activity of FLT3,FLT3,partial inhibition
same,inhibition of catalytic activity of JAK1/2,JAK1/2,partial inhibition
COc1cc2c(Nc3ccc(NC(=O)c4ccccc4)cc3)ncnc2cc1OCCCN1CCOCC1 [Compound 1.1],in vitro Ack1 activity compared to compound 1,Ack1 [3]; data not shown,comparable in vitro activity to compound 1
same,inhibition of Ack1 autophosphorylation in cells,[7],potently inhibited Ack1 autophosphorylation in cells; also recorded: inhibits Ack1 in cells

# Reference: patent US8658655B2, “Inhibition of activated cdc42-associated kinase 1” (Fox Chase Cancer Center, priority 2011, dated 2014)
